Assay results reported in patent US10597388B2, “Pyridazinone herbicides” (FMC CORPORATION, priority 2014, dated 2020).

Legend:
Assay type in all cases: in vivo
[1] = tested on: buckwheat, wild (wild buckwheat, Polygonum convolvulus); assay: Test D controlled growth environment herbicide test, pre- and postemergence; conditions: for Buckwheat, Wild plant response rating / Plant response rating (scale of 0 to 100), Buckwheat, Wild: 31 g ai/ha
From the text: Seeds of plant species selected from bluegrass (annual bluegrass, Poa annua), blackgrass (Alopecurus myosuroides), Canada thistle (Cirsium arvense), canarygrass (Phalaris minor), chickweed (common chickweed, Stellaria media), geranium, cutleaf (cutleaf geranium, Geranium dissectum), galium (catchweed bedstraw, Galium aparine), bromegrass, downy (downy bromegrass, Bromus tectorum), field poppy (Papaver rhoeas), field violet (Viola arvensis), foxtail, green (green foxtail, Setaria viridis), deadnettle (henbit deadnettle, Lamium amplexicaule), ryegrass, Italian (Italian ryegrass, Lolium multiflorum), kochia (Kochia scoparia), lambsquarters (Chenopodium album), oilseed rape (Brassica napus), pigweed (Amaranthus retroflexus), chamomile (scentless chamomile, Matricaria inodora), Russian thistle (Salsola kali), speedwell (bird's-eye speedwell, Veronica persica), barley, spring (spring barley, Hordeum vulgare), wheat, spring (spring wheat, Triticum aestivum), buckwheat, wild (wild buckwheat, Polygonum convolvulus), mustard, wild (wild mustard, Sinapis arvensis), oat, wild (wild oat, Avena fatua), radish, wild (wild radish, Raphanus raphanistrum), windgrass (Apera spica-venti), barley, winter (winter barley, Hordeum vulgare), and wheat, winter (winter wheat, Triticum aestivum) were planted into a silt loam soil and treated preemergence with test chemicals formulated in a non-phytotoxic solvent mixture which included a surfactant.
At the same time, these species were planted in pots containing Redi-Earth® planting medium (Scotts Company, 14111 Scottslawn Road, Marysville, Ohio 43041) comprising spaghnum peat moss, vermiculite, wetting agent and starter nutrients and treated with postemergence applications of the test chemicals formulated in the same manner. Plants ranged in height from 2 to 18 cm (1- to 4-leaf stage). Treated plants and controls were maintained in a controlled growth environment for 14 to 21 d after which time all species were compared to controls and visually evaluated. Plant response ratings, summarized in Table D, are based on a scale of 0 to 100 where 0 is no effect and 100 is complete control. A dash (-) response means no test result.

[2] = tested on: arrowleaf sida (Sida rhombifolia); assay: Test E greenhouse herbicide test, pre- and postemergence
How it was run: (§1)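 Herbicidal effect was judged by eye relative to untreated plants 14 to 21 d after spraying, using 0 for no effect and 100 for complete control. Preemergence sprays went onto freshly seeded silt loam; postemergence sprays onto 2–18 cm seedlings.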

[3] = tested on: corn (Zea mays); assay: as above
How it was run: as §1

[4] = tested on: field bindweed (Convolvulus arvensis); assay: as above
How it was run: as §1

[5] = tested on: goosegrass (Eleusine indica); assay: as above; conditions: Preemergence
How it was run: as §1

[6] = tested on: horseweed (Conyza canadensis); assay: as above
How it was run: as §1

[7] = tested on: momingglory (Ipomoea coccinea); assay: as above; conditions: Preemergence
How it was run: as §1

[8] = tested on: nightshade (eastern black nightshade, Solanum ptycanthum); assay: as above; conditions: Preemergence
How it was run: as §1

[9] = tested on: pigweed, palmer (palmer pigweed, Amaranthus palmeri); assay: as above
How it was run: as §1

[10] = tested on: soybean (Glycine max); assay: as above
How it was run: as §1

[11] = tested on: surinam grass (Brachiaria decumbens); assay: as above; conditions: Preemergence
How it was run: as §1

[12] = Postemergence, scale 0 to 100 (0 no effect, 100 complete control)
[13] = Postemergence, 125 g ai/ha, visual rating on scale 0 (no effect) to 100 (complete control), 14 to 21 d
[14] = Postemergence, 250 g ai/ha, scale 0 to 100 (0 no effect, 100 complete control)
[15] = Preemergence, 62 g ai/ha, scale 0 to 100 (0 no effect, 100 complete control)
[16] = Preemergence, 125 g ai/ha, scale 0 to 100 (0 no effect, 100 complete control)
[17] = Preemergence, 250 g ai/ha, scale 0 to 100 (0 no effect, 100 complete control)
[18] = postemergence, 62 g ai/ha, scale 0 to 100, 0 no effect, 100 complete control
[19] = 62 g ai/ha, Preemergence, scale 0 to 100 (0 no effect, 100 complete control)
[20] = Preemergence, 31 g ai/ha, scale 0 to 100, 0 no effect, 100 complete control
[21] = Preemergence, 125 g ai/ha, visual, scale 0 no effect to 100 complete control
[22] = Preemergence, 250 g ai/ha, visual, scale 0 no effect to 100 complete control
[23] = 62 g ai/ha, scale 0 to 100 (0 no effect, 100 complete control)
[24] = 31 g ai/ha, scale 0 to 100, 0 no effect, 100 complete control
[25] = 125 g ai/ha, visual, scale 0 no effect to 100 complete control
[26] = 250 g ai/ha, visual, scale 0 no effect to 100 complete control
[27] = 125 g ai/ha, scale 0 to 100 (0 no effect, 100 complete control)
[28] = 125 g ai/ha, Preemergence, scale 0 to 100 (0 no effect, 100 complete control)
[29] = 125 g ai/ha, Postemergence, scale 0 to 100 (0 no effect, 100 complete control)
[30] = 250 g ai/ha, Postemergence, scale 0 to 100 (0 no effect, 100 complete control)

Q: What does the source list for `CC(=O)Oc1c(C)nn(C)c(=O)c1-c1c(C)sc2c(C)cc(C)cc12` [Compound 27]?
A: Buckwheat, Wild plant response rating [1, 12]: 100; Plant response rating, Buckwheat, Wild [1, 13]: 100; Plant response rating, Buckwheat, Wild [1, 14]: 100; Plant response rating (scale of 0 to 100), Buckwheat, Wild ([1]; Preemergence): 25; Plant response rating, Buckwheat, Wild [1, 15]: 30; Plant response rating, Buckwheat, Wild [1, 16]: 45; Plant response rating, Buckwheat, Wild [1, 17]: 80; Plant response rating, Buckwheat, Wild [1, 18]: 100; Plant response rating, Arrowleaf Sida [2, 19]: 65; Plant response rating, Arrowleaf Sida [2, 20]: 40; Plant response rating, Arrowleaf Sida [2, 21]: 75; Plant response rating, Arrowleaf Sida [2, 22]: 35; Plant response rating, Corn [3, 19]: 0; Plant response rating, Corn [3, 20]: 0; Plant response rating, Corn [3, 21]: 0; Plant response rating, Corn [3, 22]: 0; Plant response rating, Field Bindweed [4, 19]: 40; Plant response rating, Field Bindweed [4, 20]: 0; Plant response rating, Field Bindweed [4, 21]: 70; Plant response rating, Field Bindweed [4, 22]: 70; Plant response rating, Goosegrass [5, 23]: 75; Plant response rating, Goosegrass [5, 24]: 35; Plant response rating, Goosegrass [5, 25]: 80; Plant response rating, Goosegrass [5, 26]: 85; Plant response rating, Horseweed [6, 19]: 100; Plant response rating, Horseweed [6, 20]: 100; Plant response rating, Horseweed [6, 21]: 100; Plant response rating, Horseweed [6, 22]: 100; Plant response rating, Morningglory [7, 23]: 85; Plant response rating, Morningglory [7, 27]: 90; Plant response rating, Morningglory [7, 24]: 85; Plant response rating, Morningglory [7, 26]: 100; Plant response rating, Nightshade [8, 23]: 100; Plant response rating, Nightshade [8, 27]: 95; Plant response rating, Nightshade [8, 24]: 90; Plant response rating, Nightshade [8, 26]: 98; Plant response rating, Pigweed, Palmer [9, 19]: 60; Plant response rating, Pigweed, Palmer [9, 28]: 85; Plant response rating, Pigweed, Palmer [9, 22]: 85; Plant response rating, Soybean [10, 19]: 0; Plant response rating, Soybean [10, 28]: 0; Plant response rating, Soybean [10, 20]: 0; Plant response rating, Soybean [10, 22]: 0; Plant response rating, Surinam Grass [11, 23]: 95; Plant response rating, Surinam Grass [11, 27]: 100; Plant response rating, Surinam Grass [11, 24]: 85; Plant response rating, Surinam Grass [11, 26]: 100

Q: Which results are given for `CCC(=O)Oc1c(C)nn(C)c(=O)c1-c1c(C)sc2c(C)cc(C)cc12` [Compound 28]?
A: Buckwheat, Wild plant response rating [1, 12]: 100; Plant response rating, Buckwheat, Wild [1, 13]: 100; Plant response rating, Buckwheat, Wild [1, 14]: 100; Plant response rating (scale of 0 to 100), Buckwheat, Wild ([1]; Preemergence): 0; Plant response rating, Buckwheat, Wild [1, 15]: 0; Plant response rating, Buckwheat, Wild [1, 16]: 20; Plant response rating, Buckwheat, Wild [1, 17]: 100; Plant response rating, Buckwheat, Wild [1, 18]: 100; Plant response rating, Arrowleaf Sida [2, 19]: 0; Plant response rating, Arrowleaf Sida [2, 29]: 60; Plant response rating, Arrowleaf Sida [2, 30]: 60; Plant response rating, Arrowleaf Sida [2, 21]: 50; Plant response rating, Arrowleaf Sida [2, 22]: 70; Plant response rating, Corn [3, 19]: 0; Plant response rating, Corn [3, 29]: 5; Plant response rating, Corn [3, 30]: 5; Plant response rating, Corn [3, 20]: 0; Plant response rating, Corn [3, 21]: 0; Plant response rating, Corn [3, 22]: 0; Plant response rating, Field Bindweed [4, 19]: 0; Plant response rating, Field Bindweed [4, 29]: 60; Plant response rating, Field Bindweed [4, 30]: 80; Plant response rating, Field Bindweed [4, 20]: 0; Plant response rating, Field Bindweed [4, 21]: 90; Plant response rating, Field Bindweed [4, 22]: 75; Plant response rating, Goosegrass [5, 23]: 60; Plant response rating, Goosegrass [5, 24]: 35; Plant response rating, Goosegrass [5, 25]: 75; Plant response rating, Goosegrass [5, 26]: 90; Plant response rating, Horseweed [6, 19]: 100; Plant response rating, Horseweed [6, 29]: 80; Plant response rating, Horseweed [6, 30]: 80; Plant response rating, Horseweed [6, 20]: 100; Plant response rating, Horseweed [6, 21]: 100; Plant response rating, Horseweed [6, 22]: 98; Plant response rating, Morningglory [7, 23]: 90; Plant response rating, Morningglory [7, 27]: 95; Plant response rating, Morningglory [7, 24]: 50; Plant response rating, Morningglory [7, 26]: 100; Plant response rating, Nightshade [8, 23]: 98; Plant response rating, Nightshade [8, 27]: 98; Plant response rating, Nightshade [8, 24]: 80; Plant response rating, Nightshade [8, 26]: 100; Plant response rating, Pigweed, Palmer [9, 19]: 65; Plant response rating, Pigweed, Palmer [9, 29]: 50; Plant response rating, Pigweed, Palmer [9, 28]: 95; Plant response rating, Pigweed, Palmer [9, 30]: 50; Plant response rating, Pigweed, Palmer [9, 20]: 0; Plant response rating, Pigweed, Palmer [9, 22]: 98; Plant response rating, Soybean [10, 19]: 0; Plant response rating, Soybean [10, 29]: 50; Plant response rating, Soybean [10, 28]: 0; Plant response rating, Soybean [10, 30]: 60; Plant response rating, Soybean [10, 20]: 0; Plant response rating, Soybean [10, 22]: 0; Plant response rating, Surinam Grass [11, 23]: 98; Plant response rating, Surinam Grass [11, 27]: 100; Plant response rating, Surinam Grass [11, 24]: 85; Plant response rating, Surinam Grass [11, 26]: 98
